Reference: patent US11160886B2, “Method for labeling of sensitive and thermosensitive targeting biomolecules with technetium based compounds” (BRACCO IMAGING SPA, priority 2016, dated 2021)

What was measured:
[1] = Biodistribution in healthy rats; format: in vivo, Sprague-Dawley rats; details: for Biodistribution: Blood / Biodistribution: Brain / Biodistribution: Heart / Biodistribution: Intestine / Biodistribution: Kidneys / Biodistribution: Liver / Biodistribution: Lungs / Biodistribution: Muscle / Biodistribution: Spleen / Biodistribution: Stomach / Biodistribution: Urine: healthy rats
Procedure: Before injection, ^99mTc complexes were purified using a reversed-phase C18 Sep-Pack cartridge to remove the excess of unlabeled ligands. After purification, the activity recovered was further diluted with PBS to obtain a final solution that is <0.5% in EtOH content. The RCP and the stability of the purified complexes were evaluated prior to in vivo administration and for the succeeding 18 h.
Biodistribution in healthy rats. Biodistribution in healthy rats was performed on complex 1, complex 2 and complex 9 in order to evaluate their pharmacokinetic profile and elimination pathways as well as their resistance to in vivo metabolism. Female Sprague-Dawley rats weighing 180-200 g were anesthetized with an intramuscular injection of a mixture of Zoletil (40 mg/kg) and xylazine (2 mg/kg). A jugular vein was surgically exposed and 100 μl (300-370 kBq) of the solution containing the selected [^99mTc(N)(PNP3OH)]-compound was injected. The rats (n=3) were scarified by cervical dislocation at different times after injection. The blood was withdrawn from the heart with a syringe immediately after death and quantified. Organs were excised, rinsed in saline, weighed, and the activity was counted in a Nal well counter.

[2] = Challenge reactions (transchelation) with excess Cys, GSH or EDTA, RCP by HPLC; format: physicochemical; details: Cys 10 mM; for % RCP after incubation with excess Cys: 37° C.
Procedure: The transchelation studies were performed for some compounds monitoring by HPLC the radiochemical purity (RCP) of the complexes in presence of an excess of exchanging ligands over the time. The experiments were performed in triplicate.
Challenge experiments were carried out on the purified [^99mTc(N)(PNP3OH)]-labeled small size compounds (complex 1, complex 2, complex 9 and complex 10) using an excess of glutathione (GSH) or Cys. An aliquot (50 μl) of an aqueous stock solution of cysteine hydrochloride (10 mM; 1 mM) was added to a propylene test tube containing PB (250 μl, 0.2 M; pH 7.4), water (100 μl) and the selected [^99mTc(N)(PNP3OH)]-compound (100 μl). The mixture was vortexed and incubated at 37° C. for 24 h. A control reaction containing an equal volume of water, instead of cysteine hydrochloride, was studied in parallel. At 30 min, 1, 3 and 24 h, aliquots of the reaction mixture were withdrawn and analyzed by HPLC chromatography. A similar procedure was applied using GSH (50 μl, 10 mM) as challenge ligand.
For [^99mTc(N)(PNP3OH)(Cys-Gly-Lys-Gly-ApoMb)]^+ (“Cys-Gly-Lys-Gly” disclosed as SEQ ID NO: 1) additional experiments were conducted using EDTA (50 μl, 10 mM) as exchanging ligand.

[3] = Sera and homogenates stability; format: in vitro ADME, human and rat; details: human and rat sera, 37° C., 3 h
Procedure: Sera and Homogenates Stability.
The in vitro stability of complex 1, complex 2, complex 9 and complex 11 was evaluated by monitoring the RCP at different time points using the following procedures. In a propylene test tube 50 μl of purified [^99mTc(N)(PNP3OH)]-compound were added to: a) 450 μl of human serum, b) 450 μl of rat serum, c) 450 μl of homogenate of rat liver and d) 450 μl of homogenate of rat kidneys. The resulting mixture was incubated at 37° C. for 4 h.
The sample was loaded onto a cartridge, preconditioned with MeOH (1 ml) and equilibrated with water (1 ml), and rinsed with MeOH 5% (3 ml). The activity was eluted with a mixture of EtOH/saline 60% (1 ml). Each fraction was collected and the activity measured using a counter (Cobra II, Packard) to determinate the elution profile. 80% of the loaded activity was collected in the elution fraction. An aliquot of this solution (100 μl) was analyzed by HPLC to assess the degradation of the ^99mTc(N)-complexes (FIG. 11).

[4] = Stability in the reaction solution as function of pH (FIG. 5); format: physicochemical
Procedure: The variation of (%)RCY of complex 1 and complex 2 over the time (30 min vs 18 h), at different conditions, is shown in FIG. 5. […] Alternatively, free PNP3OH was directly used.

avidin = avidin (Gallus gallus, UniProt P02701); test: Avidin binding; details: 1 and 24 h at 37° C.
avidin, sequence (P02701 25-152, species assumed): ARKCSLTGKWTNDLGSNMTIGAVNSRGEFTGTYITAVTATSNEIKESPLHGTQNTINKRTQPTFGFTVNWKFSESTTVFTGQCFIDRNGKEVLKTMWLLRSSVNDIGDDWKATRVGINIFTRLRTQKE
Procedure: Avidin Binding. The preliminary evaluation of the binding characteristics of the two separate isomers of complex 11 to avidin was assessed according to the previously reported methods and compared with those of the corresponding already published (Bolzati, C.; Caporale, A.; Agostini, S.; Carta, D.; Cavazza-Ceccato, M.; Refosco, F.; Tisato, F.; Schievano, E.; Bandoli, G. Avidin-biotin system: a small library of cysteine biotinylated derivatives designed for the [^99mTc(N)(PNp)]^2+ metal fragment. Nucl. Med. Biol (2006), 34, 511-522).
The percentage of radiolabeled biotin bound, evaluated after 1 and 24 h of incubation along the saturation curves, is reported in FIG. 9.

[5] = Isomeric conversion over 24 h at 37° C.; format: physicochemical
Procedure: Before the experiments for both complex 11 and complex 9, the two isomers were isolated by HPLC and their isomeric conversion was assessed over 24 h at 37° C.
In addition, a faster b vs a change was noticed. Therefore, for the radiolabeled peptide the mixture of the two isomeric forms in ratio 70/30 was directly utilized for receptor affinity studies.

Compound: CCOC(=O)C(N)C[S][99Tc+]#[N].COCCN(CCP(CO)CO)CCP(CO)CO [Complex 2, [^99mTc(N)(PNP3OH)(CysOEt)]^+]
- Pharmacokinetic profile: blood clearance ([1]; healthy animals, within the first 60 min p.i.): rapid blood clearance
- Biodistribution: Blood ([1]; 2 min): 0.99 ± 0.18 % IA/g
- Biodistribution: Brain ([1]; 2 min): 0.05 ± 0.00 % IA/g
- Biodistribution: Heart ([1]; 2 min): 0.41 ± 0.07 % IA/g
- Biodistribution: Intestine ([1]; 2 min): 0.39 ± 0.09 % IA/g
- Biodistribution: Kidneys ([1]; 2 min): 5.38 ± 0.22 % IA/g
- Biodistribution: Liver ([1]; 2 min): 0.99 ± 0.28 % IA/g
- Biodistribution: Lungs ([1]; 2 min): 0.87 ± 0.17 % IA/g
- Biodistribution: Muscle ([1]; 2 min): 0.19 ± 0.07 % IA/g
- Biodistribution: Spleen ([1]; 2 min): 0.23 ± 0.01 % IA/g
- Biodistribution: Stomach ([1]; 2 min): 0.49 ± 0.05 % IA/g
- Biodistribution: Urine ([1]; 2 min): 16.32 ± 0.00 % IA/g
- Biodistribution: Blood ([1]; 10 min): 0.62 ± 0.11 % IA/g
- Biodistribution: Brain ([1]; 10 min): 0.07 ± 0.01 % IA/g
- Biodistribution: Heart ([1]; 10 min): 0.26 ± 0.01 % IA/g
- Biodistribution: Intestine ([1]; 10 min): 1.35 ± 0.19 % IA/g
- Biodistribution: Kidneys ([1]; 10 min): 6.20 ± 0.51 % IA/g
- Biodistribution: Liver ([1]; 10 min): 1.56 ± 0.06 % IA/g
- Biodistribution: Lungs ([1]; 10 min): 0.50 ± 0.04 % IA/g
- Biodistribution: Muscle ([1]; 10 min): 0.17 ± 0.04 % IA/g
- Biodistribution: Spleen ([1]; 10 min): 0.17 ± 0.00 % IA/g
- Biodistribution: Stomach ([1]; 10 min): 0.44 ± 0.08 % IA/g
- Biodistribution: Urine ([1]; 10 min): 25.65 ± 16.29 % IA/g
- Biodistribution: Blood ([1]; 30 min): 0.62 ± 0.06 % IA/g
- Biodistribution: Brain ([1]; 30 min): 0.05 ± 0.03 % IA/g
- Biodistribution: Heart ([1]; 30 min): 0.23 ± 0.02 % IA/g
- Biodistribution: Intestine ([1]; 30 min): 1.26 ± 0.42 % IA/g
- Biodistribution: Kidneys ([1]; 30 min): 6.43 ± 2.44 % IA/g
- Biodistribution: Liver ([1]; 30 min): 1.85 ± 0.13 % IA/g
- Biodistribution: Lungs ([1]; 30 min): 0.43 ± 0.00 % IA/g
- Biodistribution: Muscle ([1]; 30 min): 0.21 ± 0.01 % IA/g
- Biodistribution: Spleen ([1]; 30 min): 0.15 ± 0.00 % IA/g
- Biodistribution: Stomach ([1]; 30 min): 0.32 ± 0.02 % IA/g
- Biodistribution: Urine ([1]; 30 min): 17.06 ± 0.00 % IA/g
- Biodistribution: Blood ([1]; 60 min): 0.24 ± 0.06 % IA/g
- Biodistribution: Brain ([1]; 60 min): 0.02 ± 0.01 % IA/g
- Biodistribution: Heart ([1]; 60 min): 0.09 ± 0.03 % IA/g
- Biodistribution: Intestine ([1]; 60 min): 2.92 ± 0.26 % IA/g
- Biodistribution: Kidneys ([1]; 60 min): 2.63 ± 1.43 % IA/g
- Biodistribution: Liver ([1]; 60 min): 1.83 ± 0.05 % IA/g
- Biodistribution: Lungs ([1]; 60 min): 0.19 ± 0.05 % IA/g
- Biodistribution: Muscle ([1]; 60 min): 0.07 ± 0.04 % IA/g
- Biodistribution: Spleen ([1]; 60 min): 0.11 ± 0.05 % IA/g
- Biodistribution: Stomach ([1]; 60 min): 0.20 ± 0.12 % IA/g
- Biodistribution: Urine ([1]; 60 min): 40.14 ± 0.00 % IA/g
- Biodistribution: Blood ([1]; 120 min): 0.09 ± 0.09 % IA/g
- Biodistribution: Brain ([1]; 120 min): 0.01 ± 0.01 % IA/g
- Biodistribution: Heart ([1]; 120 min): 0.06 ± 0.06 % IA/g
- Biodistribution: Intestine ([1]; 120 min): 6.23 ± 0.35 % IA/g
- Biodistribution: Kidneys ([1]; 120 min): 1.67 ± 1.04 % IA/g
- Biodistribution: Liver ([1]; 120 min): 0.29 ± 0.77 % IA/g
- Biodistribution: Lungs ([1]; 120 min): 0.15 ± 0.14 % IA/g
- Biodistribution: Muscle ([1]; 120 min): 0.04 ± 0.04 % IA/g
- Biodistribution: Spleen ([1]; 120 min): 0.07 ± 0.04 % IA/g
- Biodistribution: Stomach ([1]; 120 min): 0.31 ± 0.16 % IA/g
- Biodistribution: Urine ([1]; 120 min): 20.10 ± 6.28 % IA/g
- % RCP after incubation with excess Cys ([2]; 3 h): 65.93%
- % RCP after incubation with excess Cys ([2]; 24 h): 23.32%
- Stability toward Cys transchelation relative to neutral complexes ([2]; versus complex 1 and complex 11): higher stability toward Cys transchelation
- Sera stability [3]: high sera stability
- Stability in the reaction solution ([4]; pH 7.4): stable within 18 h
- Stability in the reaction solution ([4]; pH 9): a progressive degradation was observed

Compound: [^99mTc(N)(PNP3OH)(Biot-Abu-Cys)] [Complex 11]
- Recognition by molecular target (avidin binding, FIG. 9) (avidin): recognized by the corresponding molecular target
- Isomeric conversion a vs b [5]: No variation of a vs b and vice versa
